This note sets out measurements from a melting point compilation (Tetko et al.; mined from patent text by program, amines drawn as free bases though some values may be those of a salt).

Structures are written as SMILES. Bounds are passed on as bounds.

Take `COC(=O)C1=C(C)NN=C(C(=O)OC(C)C)C1c1ccccc1Cl` (stereo not given): the melting point is 166 °C.

The molecule `CC(C)(C)OC(=O)N1C[C@H](n2ccc(NC(=O)c3ccccc3)nc2=O)C[C@@H]1C(=O)OC(c1ccccc1)c1ccccc1` showed a melting point of 133 to 135 °C.

In turn, `Cc1oc(-c2ccccc2)nc1CCC(=O)c1ccc(CCCC2OC(=O)NC2=O)cc1` (stereo not given) yielded a melting point of 184 to 185 °C.

As to `CCCC(CCC)C(=O)NCC(=O)NCCCCCCNC(=O)n1cc(F)c(=O)[nH]c1=O`, the melting point lay within 111 to 112 °C.

Regarding `CCCCC(=O)Oc1cccc(NC(=O)CC(C)=O)c1`, the melting point turned out to be 65 °C.

Consider `CC(=O)N1CCC(c2nn(-c3ccc(C(F)(F)F)cc3)c3ccccc23)CC1`, for which the melting point was 148 to 150 °C.

Regarding `CN(C)S(=O)(=O)c1cc2c(c(Cl)c1Cl)OC(CO)C2` (stereo not given), the melting point fell in the range of 133 to 134 °C.

Molecule `O=C(NCC1CC1)c1ccc(F)c2c1CC(N(CCCc1c[nH]c3ccc(F)cc13)C1CCC1)CO2` (stereo not given) had a melting point of 114 °C.

For the molecule `O=C1Nc2ccc(Br)cc2C2(c3ccccn3)OCCN12` (stereo not given), the melting point is 241 to 242 °C.

`O=C(NC(Cc1ccccc1)C(=O)O)OCc1ccc(CCCc2ccccc2)cc1` (stereo not given): the melting point amounted to 135 °C.

Regarding `Cc1ncc2c(n1)-c1ccccc1C2(Cc1ccnc(F)c1)Cc1ccnc(F)c1`, the melting point is 114 to 115 °C.

Regarding `CCCCOc1cc2c(Nc3cc(OC)c(Cl)cc3Cl)c(C#N)cnc2cc1OCCOC`, the melting point lay in the range of 166 to 167 °C.

Consider `CCCCC(=O)Nc1ccc(Br)c(-n2nc(CC)n(Cc3ccc(-c4ccccc4S(=O)(=O)NC(=O)OC(C)(C)C)cc3F)c2=O)c1`, for which the melting point was 108 to 110 °C.

In the case of `CCOC(=O)c1cn(CC)c2nc(N3CCN(c4ccccc4)CC3)ncc2c1=O`, the melting point was 186 °C.

As to `CC(=O)C1=C(O)C(=C(C)Nc2cccc(S(N)(=O)=O)c2)C(=O)OC1=O`, the melting point worked out at 237 °C.

In turn, `N#Cc1cc(N)ccc1NC(=O)c1ccc(N)cc1` had a melting point of 242 to 244 °C.

`CCOC(=O)Cc1ccc2c(c1)CC(NC(C)=O)C2` (stereo not given): the melting point lay in the range of 82 to 84 °C.

Molecule `COC(=O)C(=O)c1ccc(OCCOc2ccc3cc4ccccc4cc3c2)cc1` displayed a melting point of 188 to 189 °C.

`NC(=O)NCC#CCN1CCCC1` had a melting point of 71 to 73 °C.

In turn, `CSc1nc(Cl)c(C(Cl)Cl)c(Cl)n1` registered a melting point of 66 °C.

In turn, `CN(C(=O)OC(C)(C)C)c1ccc(C#CCCCOS(C)(=O)=O)cc1` yielded a melting point of 85 to 87 °C.

`O=C1CCC2C=C(c3cccnc3)C(F)=CC2N1` (stereo not given) showed a melting point of 228 °C.

`COc1cc(C(=O)O)ccc1OC(=O)c1ccc(OC)c(C23CC4CC(CC(C4)C2)C3)c1` showed a melting point of 282 to 284 °C.

On to `CC(C)(C)OC(=O)N1CC(c2ccc(N)nc2)C1`, for which the melting point fell in the range of 103 to 104 °C.

On to `CC(C)(C)CC(=O)Nc1cc(-c2ccnc3c(C(=O)c4cccs4)cnn23)ccc1F`, for which the melting point was 180 to 181 °C.

For the molecule `CCOc1ccc(C(C)=O)cc1C(=O)O`, the melting point lay in the range of 122 to 125 °C.

Molecule `C1=C(c2cc(-c3ccccc3)no2)CCN(Cc2c[nH]c3ncccc23)C1` showed a melting point of 224 to 226 °C.

The molecule `O=S1(=O)N[C@@H](c2cccc(Cl)c2)c2ccccc21` yielded a melting point of 137 to 138 °C.

On to `CC(=O)OCc1cc2c(c3c1CCC3)C(=O)c1ccccc1C2=O`, for which the melting point lay within 160 to 161 °C.

For `CCOC(=O)Nc1ccc(N(CC)CC)cc1`, the melting point fell in the range of 31 to 33 °C.

In the case of `CN1Cc2cncn2C(c2ccc(Br)cc2)C1=O` (stereo not given), the melting point fell in the range of 143 to 144 °C.

In turn, `O=C(O)C1=Cc2cc(Oc3ccccc3)ccc2OC1C(F)(F)F` (stereo not given) showed a melting point of 185 to 186 °C.

For the molecule `CN1CCC(NC(c2cccc(C(F)(F)F)c2)c2nc3ccccc3[nH]2)CC1` (stereo not given), the melting point amounted to 90 °C.

`CCCCOc1ccc2ccccc2c1-c1c(OCCCC)ccc2ccccc12`: the melting point was determined as 85 °C.

In turn, `O=C(CCl)Nc1ccc2[nH]ncc2c1` had a melting point of 175 to 178 °C.

The molecule `O=C(CCC(=O)N1CCCCC1)c1ccc(F)cc1` displayed a melting point of 70 to 71 °C.

For `CC1(C(=O)Nc2ccc(OCc3ccccc3)c(C(F)(F)F)c2)CC1`, the melting point lay within 120 to 122 °C.

With `CCC12CCC3C4CCC(=O)C=C4CCC3C1CCC2OC` (stereo not given), the melting point lay in the range of 117 to 119 °C.

Consider `Fc1cccc(F)c1C1=N[C@@H](c2ccc(-c3ccc(S)cc3)cc2)CO1`, for which the melting point was in the range of 133 to 135 °C.

Regarding `CC(O)Cn1c(COCc2ccccc2)nc(C(C)C)c1Sc1cc(Cl)cc(Cl)c1` (stereo not given), the melting point was in the range of 155 to 157 °C.

Molecule `CCCCN(Cc1ccc2c(Br)c(OCc3nnn[nH]3)ccc2c1)C(=O)c1c(C)oc2ccccc12` showed a melting point of 204 to 206 °C.

`O=C(c1ccccc1)c1ccc(NC(=O)C(O)(C(F)F)C(F)F)cc1` returned a melting point of 139 to 142 °C.

Take `Nc1c(O)cc2c(c1[N+](=O)[O-])CCC2`: the melting point was 196 to 198 °C.

As for `COC(=O)c1cccc(C=Cc2cccc(C(=O)OC)c2)c1`, the melting point is 105 to 107 °C.

For the molecule `Oc1ccc(O)c2c1CCCC2`, the melting point is 213 to 215 °C.

On to `Cn1c(C(F)(F)F)cc(=O)n(-c2ccc3snc(C=O)c3c2)c1=O`, for which the melting point lay within 193 to 194 °C.

With `S=c1nc2ccccn2c(=S)n1-c1ccccn1`, the melting point was in the range of 107 to 109 °C.

Regarding `COc1ccc(N2CCN(c3ccc(C)cc3)CC2)c(-c2ccc(N(C)C)cc2)n1`, the melting point was in the range of 170 to 173 °C.

Turning to `CC1(C)Oc2ccc(S(C)(=O)=O)cc2[C@@H](N2CCCS2(=O)=O)[C@@H]1O` (relative stereo), the melting point was in the range of 220 to 221 °C.

`O=C1Nc2cccnc2N(C(=O)NCCN2CCC(CN3CCCCC3)C2)c2ccccc21` (stereo not given) displayed a melting point of 168 to 169 °C.

`O=C1O[C@H](c2ccccc2)[C@H](c2ccccc2)N[C@H]1Cc1ccccc1C1CCCCC1` displayed a melting point of 159 to 160 °C.

Turning to `CCc1ccc(C(=O)N[C@H](Cc2ccccc2)C(=O)O)cc1`, the melting point was 166 °C.

Take `Cc1cc(NC(=O)N(C)C)no1`: the melting point lay in the range of 150 to 152 °C.

Turning to `C#CCOC(=O)C1=C(C)NC(C)=C(C(=O)OCC)C1c1cccc([N+](=O)[O-])c1` (stereo not given), the melting point lay within 132 to 133 °C.

Turning to `CCCCNC(=O)C(=O)Nc1ccc(OC)cc1N`, the melting point was in the range of 180 to 181 °C.

Molecule `CCNC(=O)c1c([Si](C)(C)C)sc(C)c1C` gave a melting point of 90 to 94 °C.

Molecule `C(=C(c1ccccc1)c1ccccc1)C1CCN(CCCCCCCCc2cccnc2)CC1` came in with a melting point of 54 to 55 °C.

In the case of `Oc1ccc(-c2ncc3ncc(-c4cccs4)cc3n2)cc1`, the melting point lay in the range of 240 to 242 °C.

Molecule `Cc1ncncc1C(=O)Nc1ccc(-n2nc(C(F)(F)F)c(Cl)c2C2CC2)c(F)c1` displayed a melting point of 183 to 185 °C.

`CN1CCN(C2=Nc3cc(Br)ccc3N3CCc4cccc2c43)CC1` displayed a melting point of 153 to 155 °C.

Turning to `COCCOc1cc(NS(=O)(=O)c2ccccn2)c2[nH]c(C(=O)NCC(CN3CCSCC3)SCc3ccccc3)cc2c1` (stereo not given), the melting point is 160 to 161 °C.

In turn, `Brc1ccc2nc(Br)nn2c1` came in with a melting point of 201 °C.

For `O=C1COc2c1ccc1ccccc21`, the melting point was in the range of 191 to 192 °C.

Consider `CC(=O)SCC(=Cc1ccc(Oc2ccccc2)cc1)C(=O)NCCC(=O)OCc1ccccc1`, for which the melting point is 79 °C.

The molecule `Cc1ccccc1C(=O)Nc1ccc(C(=O)N2Cc3cc(Cl)ccc3Oc3ccccc32)cc1` came in with a melting point of 207 to 208 °C.

For the molecule `O=C(O)c1cccc(-c2ccc3c(c2)N(Cc2cccc(Cl)c2Cl)CC3)c1`, the melting point was in the range of 185 to 186 °C.

Consider `CCOC(=O)c1cccc2oc(C=O)cc12`, for which the melting point was in the range of 88 to 89 °C.

The molecule `CC1(c2ccccc2)OC(=O)COC1=O` (stereo not given) gave a melting point of 90 to 91 °C.

In turn, `Cc1nnc2n1-c1ccc(Cl)cc1C(N1CCCC1)=NC2` gave a melting point of 222 to 225 °C.

Take `Cn1nnnc1-c1cn(C)c2cc(O)ccc2c1=O`: the melting point is > 320 °C.

With `Cc1c(-c2ccc(OC(C)C)cc2)n(Cc2ccc(OCCN3CCCCC3)cc2)c2ccc(O)cc12`, the melting point lay within 120 to 125 °C.

`CCCCCCCCCCCCSCCCN=C=O` gave a melting point of 91 to 92 °C.

With `Cc1ccccc1NC(=O)c1ccc(-n2nc(C3CC3)cc2C2CC2)nc1`, the melting point fell in the range of 123 to 126 °C.

The molecule `CN(C(=O)c1ccc2nsnc2c1)C1CCOCC1` gave a melting point of 106 to 108 °C.

`CC(O)c1ccc(N)c(S(N)(=O)=O)c1` (stereo not given) returned a melting point of 160 to 162 °C.

As to `COCCOc1ccn(O)c(=O)c1`, the melting point turned out to be 134 °C.

As for `CCOC(=O)c1cnc2c(F)c(F)ccc2c1Cl`, the melting point was determined as 114 °C.

On to `O=C1CCCC(C(=O)c2ccc(Cc3ccc(F)cc3)o2)=C1O`, for which the melting point lay within 133 to 134 °C.

On to `Cc1cccc(C(=O)C=CC(=O)O)c1`, for which the melting point was in the range of 115 to 117 °C.

As to `CCCCCCCN(C[C@H]1CCCC[C@H]1CN(CCCCCCC)C(=O)Nc1ccc(N(C)C)cc1)C(=O)Nc1ccc(N(C)C)cc1`, the melting point fell in the range of 135 to 138 °C.

Take `CN(C)Cc1cc(C(=O)c2ccc(F)cc2)cc(C(C)(C)C)c1O`: the melting point was in the range of 112 to 113 °C.

With `CCCCCCCCCCCCCCCCCCc1c(C(=O)OCC)[nH]c(C)c1C`, the melting point was in the range of 78 to 80 °C.

`CC12CCC(=O)C=C1CCC1C2=CCC2(C)C(=O)CCC12` (stereo not given) came in with a melting point of 196 to 202 °C.

`COc1cc2c(c(OC)c1)C1=C(CC2)C2=CCC(=O)C2(C)CC1` (stereo not given) had a melting point of 120 to 121 °C.

Take `COC1(c2cccc(S(=O)(=O)c3ccc(N(C)C(C)=O)c(Cl)c3)c2)CCOCC1`: the melting point lay within 119 to 121 °C.

In turn, `O=C(NCc1ccccc1)c1cnccc1-c1ccccc1` displayed a melting point of 164 to 166 °C.

As for `CCCNc1cc(C(=O)OCC)cc(S(N)(=O)=O)c1Oc1ccccc1`, the melting point is 150 to 151 °C.

With `CC(C)Cc1cc(OCc2ccccc2)c2c(c1)OC(C)(C)CC2C(=O)Oc1ccc([N+](=O)[O-])cc1` (stereo not given), the melting point lay in the range of 125 to 126 °C.

For `O=C(Cl)[C@@H]1CCC(=O)N1C(=O)OCc1ccccc1`, the melting point lay within 65 to 70 °C.

`Cn1c(C(F)(F)F)cc(C#N)c1-c1ccc(Cl)cc1` returned a melting point of 130 °C.
